The values below are quoted from earlier work in patent US4834966A, “Pharmaceutical composition with analgesic activity” (priority 1986, dated 1989).

For series [1] the following is noted: background statement.
In series [2] the test system is gastrointestinal and oral mucosa. As to conditions: background statement.

As for `CC(C)Cc1ccc(C(C)C(=O)[O-])cc1.[Na+]` (centres unmarked) [Ibuprofen sodium salt], the solubility in water entry in series [1] was “good solubility in water”. For the same compound, the “gastrointestinal effect of solution pH” value in series [2] is given as “gives solutions having a pH which produces gastrointestinal damages”.
